Experimental findings from ChEMBL document CHEMBL4257557, “Design, synthesis, and evaluation of 4,5,6,7-tetrahydrobenzo[d]thiazole-based novel dual kinase inhibitors of CK2 and GSK3β” (Medchemcomm, 2018) are described below.

In experiment [1] the target is T1, Casein kinase II subunit alpha (Homo sapiens, UniProt P68400). The experiment can be described thus: Inhibition of recombinant full length human His-tagged CK2alpha1 expressed in baculovirus expression system at 11 uM using ser/thr-11 peptide as substrate measured after 1 hr by Z'-Lyte assay relative to control.
Target sequence in this assay (P68400 whole entry, looked up): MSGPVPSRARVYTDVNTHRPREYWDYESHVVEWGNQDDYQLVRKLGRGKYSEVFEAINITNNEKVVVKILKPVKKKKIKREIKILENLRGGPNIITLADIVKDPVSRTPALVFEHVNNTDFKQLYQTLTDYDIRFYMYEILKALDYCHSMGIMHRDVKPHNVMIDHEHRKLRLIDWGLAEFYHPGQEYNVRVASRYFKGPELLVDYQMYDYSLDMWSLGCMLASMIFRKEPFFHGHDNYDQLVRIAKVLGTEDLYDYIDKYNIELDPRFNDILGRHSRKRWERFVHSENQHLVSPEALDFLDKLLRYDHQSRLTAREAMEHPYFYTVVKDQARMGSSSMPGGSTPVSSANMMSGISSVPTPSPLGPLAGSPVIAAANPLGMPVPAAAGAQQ
The target of experiment [2] is T2, Glycogen synthase kinase-3 beta (Homo sapiens, UniProt P49841). As to the kind of experiment: Inhibition of recombinant full length human His-tagged GSK3beta expressed in baculovirus expression system at 11 uM using ser/thr-9 peptide as substrate measured after 1 hr by Z'-Lyte assay relative to control.
Target sequence in this assay (P49841 whole entry, looked up): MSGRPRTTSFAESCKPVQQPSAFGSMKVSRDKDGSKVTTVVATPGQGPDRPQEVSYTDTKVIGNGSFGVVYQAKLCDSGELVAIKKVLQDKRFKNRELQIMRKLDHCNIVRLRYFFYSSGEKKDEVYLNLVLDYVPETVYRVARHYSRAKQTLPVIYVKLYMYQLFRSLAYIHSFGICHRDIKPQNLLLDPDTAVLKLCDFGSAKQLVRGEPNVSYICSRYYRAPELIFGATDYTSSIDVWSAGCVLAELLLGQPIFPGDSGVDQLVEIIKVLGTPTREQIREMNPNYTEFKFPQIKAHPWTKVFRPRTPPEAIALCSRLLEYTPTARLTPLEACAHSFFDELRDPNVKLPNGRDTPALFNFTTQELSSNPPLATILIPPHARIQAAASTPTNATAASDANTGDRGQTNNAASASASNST
For experiment [3], the target named is T1, Casein kinase II subunit alpha. The experiment can be described thus: Inhibition of recombinant full length human His-tagged CK2alpha1 expressed in baculovirus expression system using ser/thr-11 peptide as substrate measured after 1 hr by Z'-Lyte assay.
Target sequence in this assay (P68400 whole entry): as the sequence (P68400 whole entry, looked up) above
In experiment [4] the target is T2, Glycogen synthase kinase-3 beta. The experiment can be described thus: Inhibition of recombinant full length human His-tagged GSK3beta expressed in baculovirus expression system using ser/thr-9 peptide as substrate measured after 1 hr by Z'-Lyte assay.
Target sequence in this assay (P49841 whole entry): as the sequence (P49841 whole entry, looked up) above

Some results are limits rather than exact numbers.

As for `CCCN(C(=O)Nc1ccc(F)cc1)C1CCc2nc(NCc3ccc(C(=O)OC)cc3)sc2C1` (stereo not drawn), the inhibition in experiment [1] and in experiment [2] was below 30% throughout.
Consider `O=C(Nc1ccc(F)cc1)Nc1nc2c(s1)CC(NC(=O)Nc1ccc(F)cc1)CC2` (stereo not drawn), for which the inhibition in experiment [1] and in experiment [2] was below 30% throughout.
`CCCN(C(=O)Nc1ccc(F)cc1)C1CCc2nc(NC(=O)Nc3ccc(F)cc3)sc2C1` (stereo not drawn): the inhibition in experiment [1] and in experiment [2] was below 30% each time.
As for `CCCN(C(=O)Nc1ccc(C(=O)O)cc1)C1CCc2nc(NC(=O)Nc3ccc(C(=O)O)cc3)sc2C1` (stereo not drawn), the inhibition in experiment [1] and in experiment [2] was below 30% throughout.
For `O=C(Nc1cccc(C(=O)O)c1)Nc1nc2c(s1)CC(NC(=O)Nc1cccc(C(=O)O)c1)CC2` (stereo not drawn), the inhibition in experiment [1] and in experiment [2] was above 30% throughout. For the same molecule, the figures for the 50% inhibitory concentration (IC50) in experiment [3] and in experiment [4] were 12.4 µM and 6 µM, respectively.
`CCCN(C(=O)Nc1ccccc1F)C1CCc2nc(NCc3ccc(C(=O)O)cc3)sc2C1` (stereo not drawn): the inhibition in experiment [1] and in experiment [2] was below 30% in each case.
As for `O=C(Nc1cccc(F)c1)Nc1nc2c(s1)CC(N1C(=O)c3ccccc3C1=O)CC2` (stereo not drawn), the inhibition in experiment [1] and in experiment [2] was below 30% in each case.
Regarding `CCCN(C(=O)Nc1ccc(C(=O)OCC)cc1)C1CCc2nc(NCc3ccc(C(=O)OC)cc3)sc2C1` (stereo not drawn), the inhibition in experiment [1] and in experiment [2] was below 30% each time.
As to `CCCN(C(=O)Nc1ccc(F)cc1)C1CCc2nc(NCc3ccc(C(=O)O)cc3)sc2C1` (stereo not drawn), the inhibition in experiment [1] and in experiment [2] was below 30% throughout.
Regarding `COc1ccc(NC(=O)Nc2nc3c(s2)CC(NC(=O)Nc2ccc(OC)cc2)CC3)cc1` (stereo not drawn), the inhibition in experiment [1] and in experiment [2] was below 30% throughout.
Turning to `O=C(Nc1ccc(C(=O)O)cc1)Nc1nc2c(s1)CC(NC(=O)Nc1ccc(C(=O)O)cc1)CC2` (stereo not drawn), the inhibition in experiment [1] and in experiment [2] was below 30% throughout.
Consider `CCCN(C(=O)Nc1cccc(C(=O)OCC)c1)C1CCc2nc(NCc3ccc(C(=O)OC)cc3)sc2C1` (stereo not drawn), for which the inhibition in experiment [1] and in experiment [2] was above 30% each time. Further, the figures for the IC50 in experiment [3] and in experiment [4] were 4.6 µM and 13.6 µM, respectively.
In the case of `CCCN(C(=O)Nc1ccc(OC)cc1)C1CCc2nc(NCc3ccc(C(=O)O)cc3)sc2C1` (stereo not drawn), the inhibition in experiment [1] and in experiment [2] was below 30% throughout.
On to `O=C(Nc1nc2c(s1)CC(NC(=O)Nc1ccccc1F)CC2)Nc1ccccc1F` (stereo not drawn), for which the inhibition in experiment [1] and in experiment [2] was below 30% throughout.
Take `CCOC(=O)c1ccc(NC(=O)Nc2nc3c(s2)CC(NC(=O)Nc2ccc(C(=O)OCC)cc2)CC3)cc1` (stereo not drawn): the inhibition in experiment [1] and in experiment [2] was below 30% each time.
Regarding `O=C(Nc1cccc(F)c1)Nc1nc2c(s1)CC(NC(=O)Nc1cccc(F)c1)CC2` (stereo not drawn), the inhibition in experiment [1] and in experiment [2] was below 30% throughout.
Take `COc1ccc(NC(=O)Nc2nc3c(s2)CC(N2C(=O)c4ccccc4C2=O)CC3)cc1` (stereo not drawn): the inhibition in experiment [1] and in experiment [2] was below 30% in each case.
In the case of `O=C(Nc1cccc(C(=O)O)c1)Nc1nc2c(s1)CC(N1C(=O)c3ccccc3C1=O)CC2` (stereo not drawn), the inhibition in experiment [1] and in experiment [2] was above 30% throughout. Moreover, the figures for the IC50 in experiment [3] and in experiment [4] were 1.9 µM and 0.67 µM, respectively.
Take `O=C(Nc1ccc(F)cc1)Nc1nc2c(s1)CC(N1C(=O)c3ccccc3C1=O)CC2` (stereo not drawn): the inhibition in experiment [1] and in experiment [2] was below 30% each time.
On to `O=C(Nc1ccc(C(=O)O)cc1)Nc1nc2c(s1)CC(N1C(=O)c3ccccc3C1=O)CC2` (stereo not drawn), for which the inhibition in experiment [1] and in experiment [2] was above 30% each time. Further, the IC50 (as a rule, the midpoint of a concentration-inhibition curve) in experiment [3] is 4.9 µM; in experiment [4], 4.6 µM.
Turning to `O=C(Nc1nc2c(s1)CC(N1C(=O)c3ccccc3C1=O)CC2)Nc1ccccc1F` (stereo not drawn), the inhibition in experiment [1] and in experiment [2] was below 30% each time.
As to `CCCN(C(=O)Nc1ccc(C(=O)OCC)cc1)C1CCc2nc(NC(=O)Nc3ccc(C(=O)OCC)cc3)sc2C1` (stereo not drawn), the inhibition in experiment [1] and in experiment [2] was below 30% throughout.
For `CCCN(C(=O)Nc1cccc(F)c1)C1CCc2nc(NC(=O)Nc3cccc(F)c3)sc2C1` (stereo not drawn), the inhibition in experiment [1] and in experiment [2] was below 30% in each case.
For the molecule `CCCN(C(=O)Nc1ccc(C(=O)O)cc1)C1CCc2nc(NCc3ccc(C(=O)O)cc3)sc2C1` (stereo not drawn), the inhibition in experiment [1] and in experiment [2] was below 30% in each case.
For `CCCN(C(=O)Nc1ccccc1F)C1CCc2nc(NC(=O)Nc3ccccc3F)sc2C1` (stereo not drawn), the inhibition in experiment [1] and in experiment [2] was below 30% in each case.
In the case of `CCCN(C(=O)Nc1cccc(F)c1)C1CCc2nc(NCc3ccc(C(=O)OC)cc3)sc2C1` (stereo not drawn), the inhibition in experiment [1] and in experiment [2] was below 30% throughout.
With `CCOC(=O)c1cccc(NC(=O)Nc2nc3c(s2)CC(NC(=O)Nc2cccc(C(=O)OCC)c2)CC3)c1` (stereo not drawn), the inhibition in experiment [1] and in experiment [2] was above 30% each time. The IC50 in experiment [3] was found to be 20.4 µM; in experiment [4] it was 2.5 µM.
As for `CCCN(C(=O)Nc1ccc(OC)cc1)C1CCc2nc(NC(=O)Nc3ccc(OC)cc3)sc2C1` (stereo not drawn), the inhibition in experiment [1] and in experiment [2] was below 30% throughout.
On to `CCCN(C(=O)Nc1ccccc1F)C1CCc2nc(NCc3ccc(C(=O)OC)cc3)sc2C1` (stereo not drawn), for which the inhibition in experiment [1] and in experiment [2] was below 30% throughout.
Take `CCCN(C(=O)Nc1cccc(C(=O)OCC)c1)C1CCc2nc(NC(=O)Nc3cccc(C(=O)OCC)c3)sc2C1` (stereo not drawn): the inhibition in experiment [1] and in experiment [2] was below 30% in each case.
`CCCN(C(=O)Nc1cccc(C(=O)O)c1)C1CCc2nc(NC(=O)Nc3cccc(C(=O)O)c3)sc2C1` (stereo not drawn): the inhibition in experiment [1] and in experiment [2] was above 30% throughout. In addition, the IC50 in experiment [3] stood at 2.8 µM; in experiment [4], 1.5 µM.
In the case of `CCCN(C(=O)Nc1ccc(OC)cc1)C1CCc2nc(NCc3ccc(C(=O)OC)cc3)sc2C1` (stereo not drawn), the inhibition in experiment [1] and in experiment [2] was below 30% throughout.
Turning to `CCOC(=O)c1cccc(NC(=O)Nc2nc3c(s2)CC(N2C(=O)c4ccccc4C2=O)CC3)c1` (stereo not drawn), the inhibition in experiment [1] and in experiment [2] was above 30% each time. In addition, the IC50 worked out at 7.9 µM in experiment [3] and 5.3 µM in experiment [4].
With `CCCN(C(=O)Nc1cccc(C(=O)O)c1)C1CCc2nc(NCc3ccc(C(=O)O)cc3)sc2C1` (stereo not drawn), the inhibition in experiment [1] and in experiment [2] was above 30% throughout. For the same molecule, the results for the IC50 in experiment [3] and in experiment [4] were 4 µM and 11.4 µM, respectively.
As for `CCOC(=O)c1ccc(NC(=O)Nc2nc3c(s2)CC(N2C(=O)c4ccccc4C2=O)CC3)cc1` (stereo not drawn), the inhibition in experiment [1] and in experiment [2] was below 30% throughout.
`CCCN(C(=O)Nc1cccc(F)c1)C1CCc2nc(NCc3ccc(C(=O)O)cc3)sc2C1` (stereo not drawn): the inhibition in experiment [1] and in experiment [2] was below 30% throughout.
